Columns and labels:
CK1ε = CK1ε (Homo sapiens, UniProt P49674); assay: CK1ε kinase activity assay (Caliper, FAM-labelled polypeptide); format: biochemical
Method: The in-vitro assay of inhibitory activity of the compound herein against CK1ε kinase was:
(1) preparation of 1× kinase basic buffer and stop buffer: • 1×kinase basic buffer: 50 mM HEPES, pH 7.5; and 0.0015% Brij-35; • stop buffer: 100 mM HEPES, pH 7.5; 0.015% Brij-35; 0.2% Coating Reagent #3; and 50 mM EDTA.
(2) preparation of the test compound: • a 50× (“n×” represents dilution factor, same hereafter) stock solution of the compound with DMSO (10 mM, DMSO) to obtain stock solution I for use; […] of stock solution I was placed in a 96-well plate, each compound sample was diluted by 5-fold serial dilution till 10 concentrations was obtained while ensuring 10 μl of drug solution in each well; meanwhile, 100 μl of DMSO was used as a blank control group and a negative control group without enzyme substrate; • a separate 96-well plate was prepared, and to 10 μl of the above compound,
90 μl of 1× kinase foundation buffer was added, mixed well for 10 min to obtain a mixture.

OCI-LY10 cells = assay: In-vitro anti-tumor activity, OCI-LY10 cells, CCK-8; format: cell-based, human; conditions: Homo sapiens; OCI-LY10, 72h, CCK-8; read-out: IC50
Method: The in-vitro anti-tumor activities of the synthesized compounds were determined using a diffuse large B-cell lymphoma (OCI-LY10) cell strain:
Drug preparation method: The drug was dissolved in DMSO to make a stock solution of 10 mM and diluted in a certain ratio to obtain 7 different concentrations (test concentration: 100×).
In vitro culture of tumor cells: The selected OCI-LY10 cells were incubated with a medium of IMDM+fetal bovine serum in a 5% CO2 cell culture incubator at 37° C., and were passaged when the cell density grew to 70-90% (adherent cells were passaged after digestion with Duck's EDTA) for later experiments as needed. Four thousand cells/200 μl/well were seeded in a 96-well plate and incubated overnight in a 5% CO2 cell incubator at 37° C. Two μl of the compounds were dispensed in each well at final concentrations of […], and incubation was performed together for 72h in a 5% CO2 cell incubator at 37° C. with DMSO (2%) as control. After 72h, 20 μl of CCK-8 solution was added and the plate was placed in a 5% CO2 cell culture incubator at 37° C. for 4h. Wells with the corresponding amounts of cell culture medium and CCK-8 solution but without cells were used as blank controls. The absorbance (OD values) was measured at 450 nm using an enzyme marker, and the obtained data were used to calculate the IC50.

OCI-LY10 xenograft tumor = assay: In vivo pharmacodynamic study, OCI-LY10 subcutaneous xenograft in SCID mice; set-up: species or system SCID mouse; conditions: Table 4; 100 mg/kg PO QD Day 0-38; combinations with 17a 6 mg/kg PO QD
Method: OCI-LY10 cells were cultured in an IMDM medium containing 20% FBS and maintained in a 5% CO2 incubator at 37° C. with saturated humidity. OCI-LY10 cells of logarithmic phase were collected and resuspended in an IMDM basic medium containing 50% Matrigel, and the cell concentration was adjusted to 5×10^7/ml. Subcutaneous inoculation of 0.1 ml of the cell suspension was performed aseptically in the right dorsum of mice at a concentration of 5×10^6/0.1 ml/mouse. Once the tumor volume reached about 150 mm^3, the animals were randomly grouped according to tumor volume so that the difference in tumor volume between the groups was less than 10% of the mean value. The date of grouping was recorded as Day 0, and drug administration was started based on the body weight of the animals. During drug administration, body weight of certain animals decreased by more than 15% compared to Day 0 (BWL≥15%), drug administration was discontinued for these animals until their body weight recovered (BWL<15%). The body weight and tumor volume of the animals were measured twice a week during the experiment, and clinical signs were observed and recorded daily.
The efficacy in terms of tumor volume was evaluated by the relative tumor proliferation rate T/C ratio, and T/C (%) was calculated as TRTV/CRTV[…], where TRTV is the relative tumor volume (RTV) of the treatment group and CRTV is the RTV of the negative control group. The RTV was calculated as Vt/V0, where V0 is the tumor volume at the time of grouping and Vt is the tumor volume at each measurement. The drug is considered effective with T/CP≤40% according to NMPA guidelines.
The efficacy in terms of tumor weight was evaluated by TGI (tumor weight inhibition) values, TGI 0%=(TWC−TWT)/TWC×[…], where TWC is tumor weight of control group, and TWT is tumor weight of treatment group. The drug is considered effective with TGI≥58% according to NIH guidelines.

CK1ε, sequence (P49674 whole entry): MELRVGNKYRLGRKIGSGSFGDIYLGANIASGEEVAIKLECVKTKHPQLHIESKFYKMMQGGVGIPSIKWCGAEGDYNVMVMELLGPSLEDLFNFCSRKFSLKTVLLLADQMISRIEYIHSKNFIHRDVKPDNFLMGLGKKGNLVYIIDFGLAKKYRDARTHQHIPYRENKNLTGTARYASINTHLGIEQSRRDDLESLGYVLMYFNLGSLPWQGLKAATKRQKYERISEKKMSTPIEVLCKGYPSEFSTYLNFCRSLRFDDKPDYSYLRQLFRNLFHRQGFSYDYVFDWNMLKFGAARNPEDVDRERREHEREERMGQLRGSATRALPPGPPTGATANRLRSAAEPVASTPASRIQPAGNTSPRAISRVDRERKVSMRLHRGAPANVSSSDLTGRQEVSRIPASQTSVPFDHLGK

Row | Structure (SMILES) | IC50 (CK1ε) [nM] | also measured
1 | CC(C)Oc1ccc(-c2nn(C(C)c3nc4ccccc4c(=O)n3-c3ccccc3)c3ncnc(N)c23)cc1F (centres unmarked) [Compound A, reference compound] | 1730 | –
2 | CC(c1nc2ccccc2c(=O)n1-c1ccccc1)n1nc(-c2ccc(OC3CC3)c(F)c2)c2c(N)ncnc21 (centres unmarked) [Compound B, reference compound] | 2710 | –
3 | CC(C)Oc1ccc(-c2nn(C(C)c3nc4cccc(F)c4c(=O)n3-c3ccccc3)c3ncnc(N)c23)cc1F (centres unmarked) [Compound D, reference compound] | 1290 | IC50 (OCI-LY10 cells): 746 nM
4 | CC(C)Oc1ccc(-c2nn(C(C)c3nc4ccccc4c(=O)n3-c3ccccc3)c3ncnc(N)c23)c(F)c1F (centres unmarked) [II-A-2, 2-(1-(4-amino-3-(2,3-difluoro-4-isopropoxyphenyl)-1H-pyrazolo[3,4-d]pyrimidin-1-yl)ethyl)-3-phenylquinazolin-4(3H)-one] | 145 | IC50 (OCI-LY10 cells): 234 nM; fold increase of inhibitory activity against CK1ε (CK1ε; compared to compound A): 12 fold
5 | CC(C)Oc1ccc(-c2nn([C@@H](C)c3nc4ccccc4c(=O)n3-c3ccccc3)c3ncnc(N)c23)c(F)c1F [II-A-2a, (S)-2-(1-(4-amino-3-(2,3-difluoro-4-isopropoxyphenyl)-1H-pyrazolo[3,4-d]pyrimidin-1-yl)ethyl)-3-phenylquinazolin-4(3H)-one] | 88 | –
6 | CC(C)Oc1ccc(-c2nn([C@H](C)c3nc4ccccc4c(=O)n3-c3ccccc3)c3ncnc(N)c23)c(F)c1F [II-A-2b, (R)-2-(1-(4-amino-3-(2,3-difluoro-4-isopropoxyphenyl)-1H-pyrazolo[3,4-d]pyrimidin-1-yl)ethyl)-3-phenylquinazolin-4(3H)-one] | 450 | –
7 | CCOc1ccc(-c2nn(C(C)c3nc4ccccc4c(=O)n3-c3ccccc3)c3ncnc(N)c23)c(F)c1F (centres unmarked) [II-A-3, 2-(1-(4-amino-3-(4-ethoxy-2,3-difluorophenyl)-1H-pyrazolo[3,4-d]pyrimidin-1-yl)ethyl)-3-phenylquinazolin-4(3H)-one] | 232 | –
8 | CC(c1nc2ccccc2c(=O)n1-c1ccccc1)n1nc(-c2ccc(OC3CC3)c(F)c2F)c2c(N)ncnc21 (centres unmarked) [II-A-4, 2-(1-(4-amino-3-(4-cyclopropoxy-2,3-difluorophenyl)-1H-pyrazolo[3,4-d]pyrimidin-1-yl)ethyl)-3-phenylquinazolin-4(3H)-one] | 234 | fold increase of inhibitory activity against CK1ε (CK1ε; compared to compound B): 12 fold
9 | COc1ccc(-c2nn(C(C)c3nc4ccccc4c(=O)n3-c3ccccc3)c3ncnc(N)c23)c(F)c1Cl (centres unmarked) [II-A-5, 2-(1-(4-amino-3-(3-chloro-2-fluoro-4-methoxyphenyl)-1H-pyrazolo[3,4-d]pyrimidin-1-yl)ethyl)-3-phenylquinazolin-4(3H)-one] | 386 | –
10 | COc1cc(F)c(-c2nn(C(C)c3nc4ccccc4c(=O)n3-c3ccccc3)c3ncnc(N)c23)c(F)c1 (centres unmarked) [II-A-12, 2-(1-(4-amino-3-(2,6-difluoro-4-methoxyphenyl)-1H-pyrazolo[3,4-d]pyrimidin-1-yl)ethyl)-3-phenylquinazolin-4(3H)-one] | 202 | –
11 | CC(C)Oc1ccc(-c2nn(C(C)c3nc4cccc(F)c4c(=O)n3-c3ccccc3)c3ncnc(N)c23)c(F)c1F (centres unmarked) [II-A-16, 2-(1-(4-amino-3-(2,3-difluoro-4-isopropoxyphenyl)-1H-pyrazolo[3,4-d]pyrimidin-1-yl)ethyl)-5-fluoro-3-phenylquinazolin-4(3H)-one] | 100 | fold increase of inhibitory activity against CK1ε (CK1ε; compared to CUX-031773): 93.6 fold; fold increase of inhibitory activity against CK1ε (CK1ε; compared to compound D): 12.9 fold
12 | COc1ccc(-c2nn(C(C)c3nc4cccc(Cl)c4c(=O)n3N3CCCCC3)c3ncnc(N)c23)c(F)c1F (centres unmarked) [II-C-5, 2-(1-(4-amino-3-(2,3-difluoro-4-methoxyphenyl)-1H-pyrazolo[3,4-d]pyrimidin-1-yl)ethyl)-5-chloro-3-(piperidin-1-yl)quinazolin-4(3H)-one] | 299 | IC50 (OCI-LY10 cells): 307 nM

More lines, main results first:

Row | IC50 (CK1ε) [nM] | Structure (SMILES) | also measured
13 | 701 | COc1ccc(-c2nn(C(C)c3nc4cccc(Cl)c4c(=O)n3-c3ccccc3)c3ncnc(N)c23)cc1F (centres unmarked) [Compound C, reference compound] | IC50 (OCI-LY10 cells): 2700 nM
14 | 164 | COc1ccc(-c2nn(C(C)c3nc4ccccc4c(=O)n3-c3ccccc3)c3ncnc(N)c23)c(F)c1F (centres unmarked) [II-A-1, 2-(1-(4-amino-3-(2,3-difluoro-4-methoxyphenyl)-1H-pyrazolo[3,4-d]pyrimidin-1-yl)ethyl)-3-phenylquinazolin-4(3H)-one] | RTV Day 39 (OCI-LY10 xenograft tumor): 2.45 ± 0.50; T/C (%) Day 39 (OCI-LY10 xenograft tumor): 35.40%; TGI (%) (OCI-LY10 xenograft tumor): 63.91%; Tumor weight (OCI-LY10 xenograft tumor): 0.288 ± 0.064 g; IC50 (OCI-LY10 cells): 142 nM
15 | 484 | COc1ccc(-c2nn([C@H](C)c3nc4ccccc4c(=O)n3-c3ccccc3)c3ncnc(N)c23)c(F)c1F [II-A-1b, (R)-2-(1-(4-amino-3-(2,3-difluoro-4-methoxyphenyl)-1H-pyrazolo[3,4-d]pyrimidin-1-yl)ethyl)-3-phenylquinazolin-4(3H)-one] | –
16 | 118 | COc1ccc(-c2nn(C(C)c3nc4cccc(F)c4c(=O)n3-c3ccccc3)c3ncnc(N)c23)c(F)c1F (centres unmarked) [II-A-8, 2-(1-(4-amino-3-(2,3-difluoro-4-methoxyphenyl)-1H-pyrazolo[3,4-d]pyrimidin−1-yl)ethyl)-5-fluoro-3-phenylquinazolin-4(3H)-one] | –
17 | 60 | COc1ccc(-c2nn([C@@H](C)c3nc4cccc(F)c4c(=O)n3-c3ccccc3)c3ncnc(N)c23)c(F)c1F [II-A-8a, (S)-2-(1-(4-amino-3-(2,3-difluoro-4-methoxyphenyl)-1H-pyrazolo[3,4-d]pyrimidin-1-yl)ethyl)-5-fluoro-3-phenylquinazolin-4(3H)-one] | –
18 | 100 | COc1ccc(-c2nn(C(C)c3nc4ccc(F)cc4c(=O)n3-c3ccccc3)c3ncnc(N)c23)c(F)c1F (centres unmarked) [II-A-9, 2-(1-(4-amino-3-(2,3-difluoro-4-methoxyphenyl)-1H-pyrazolo[3,4-d]pyrimidin-1-yl)ethyl)-6-fluoro-3-phenylquinazolin-4(3H)-one] | –
19 | 372 | COc1ccc(-c2nn(C(C)c3nc4cccc(Cl)c4c(=O)n3-c3cccnc3)c3ncnc(N)c23)c(F)c1F (centres unmarked) [II-B-2, 2-(1-(4-amino-3-(2,3-difluoro-4-methoxyphenyl)-1H-pyrazolo[3,4-d]pyrimidin-1-yl)ethyl)-5-chloro-3-(pyridin-3-yl)quinazolin-4(3H)-one] | IC50 (OCI-LY10 cells): 193 nM
20 | 202 | COc1ccc(-c2nn([C@@H](C)c3nc4cccc(Cl)c4c(=O)n3-c3cccnc3)c3ncnc(N)c23)c(F)c1F [II-B-2a, (S)-2-(1-(4-amino-3-(2,3-difluoro-4-methoxyphenyl)-1H-pyrazolo[3,4-d]pyrimidin-1-yl)ethyl)-5-chloro-3-(pyridin-3-yl)quinazolin-4(3H)-one] | –
21 | 89 | COc1ccc(-c2nn(C(C)c3nc4cccc(Cl)c4c(=O)n3-c3cncc(F)c3)c3ncnc(N)c23)c(F)c1F (centres unmarked) [II-B-3, 2-(1-(4-amino-3-(2,3-difluoro-4-methoxyphenyl)-1H-pyrazolo[3,4-d]pyrimidin-1-yl)ethyl)-5-chloro-3-(5-fluoropyridin-3-yl)quinazolin-4(3H)-one] | –
